The results in this text go back to US11547112B2, “Solvents for agricultural applications and pesticide formulations” (Dow Global Technologies LLC, priority 2017, dated 2023).

The data set can be described thus: Solubility of pesticides in solvents (stepwise 2% increments of pesticide powder). The conditions noted are these: highest concentration still dissolved, no more than 2% lower than actual solubility; for Solubility in Comparative Solvent B: solvent: diethylene glycol monoethyl ether; for Solubility in Comparative Solvent A: solvent: dimethyl sulfoxide (DMSO); for Solubility in Comparative Solvent C: solvent: ethyl 3-ethoxypropionate.

Description: The solubility of various pesticides in these solvents are evaluated.
Each pesticide powder is added by solvent in 2% stepwise increments to the final pesticide concentration. Each pesticide reaches a concentration where the pesticide powder is not dissolved by the solvent.

Consider `CCCCC(C#N)(Cn1cncn1)c1ccc(Cl)cc1` (stereo not drawn) [Myclobutanil], for which the “Solubility in Comparative Solvent B” value came out at 46.0 weight %, the “Solubility in Comparative Solvent A” value turned out to be 56.7 weight % and the “Solubility in Comparative Solvent C” value worked out at 39.0 weight %.

Regarding `CC(C)(C)C(O)(CCc1ccc(Cl)cc1)Cn1cncn1` (stereo not drawn) [Tebuconazole], the “Solubility in Comparative Solvent B” value was found to be 26.5 weight %, the “Solubility in Comparative Solvent A” value worked out at 32.3 weight % and the “Solubility in Comparative Solvent C” value is 16.0 weight %.

Consider `COC(=O)N(OC)c1ccccc1COc1ccn(-c2ccc(Cl)cc2)n1` [Pyraclostrobin], for which the “Solubility in Comparative Solvent B” value is given as 33.0 weight %, the “Solubility in Comparative Solvent A” value was 40.0 weight % and the “Solubility in Comparative Solvent C” value came to 47.0 weight %.

In the case of `CC(C)(C)C(=O)C(Oc1ccc(Cl)cc1)n1cncn1` (stereo not drawn) [Triazolone], the “Solubility in Comparative Solvent B” value is 35.7 weight %, the “Solubility in Comparative Solvent A” value was found to be 43.3 weight % and the “Solubility in Comparative Solvent C” value amounted to 32.0 weight %.
